Consider 5 compounds from ChEMBL document CHEMBL1687877, “Tripeptide motifs in biology: targets for peptidomimetic design” (J Med Chem, 2011).

A short description of assay [1]: Inhibition of bacterial DNA polymerase beta association with DNA polymerase alpha.
Assay [2] can be described thus: Inhibition of bacterial DNA polymerase beta association with DNA polymerase delta.
Assay [3] is described as follows: Induction of neurite outgrowth in rat CGN cells at 7.3 uM. The class given is functional.
Assay [4] has as its target D(2) dopamine receptor (Homo sapiens) (UniProt P14416). Briefly: Agonist activity at human dopamine D2 receptor at 10 nM. The class given is functional.
The next assay has as its target T1, Cadherin-2 (Homo sapiens, UniProt P19022).
T1 sequence (P19022 whole entry): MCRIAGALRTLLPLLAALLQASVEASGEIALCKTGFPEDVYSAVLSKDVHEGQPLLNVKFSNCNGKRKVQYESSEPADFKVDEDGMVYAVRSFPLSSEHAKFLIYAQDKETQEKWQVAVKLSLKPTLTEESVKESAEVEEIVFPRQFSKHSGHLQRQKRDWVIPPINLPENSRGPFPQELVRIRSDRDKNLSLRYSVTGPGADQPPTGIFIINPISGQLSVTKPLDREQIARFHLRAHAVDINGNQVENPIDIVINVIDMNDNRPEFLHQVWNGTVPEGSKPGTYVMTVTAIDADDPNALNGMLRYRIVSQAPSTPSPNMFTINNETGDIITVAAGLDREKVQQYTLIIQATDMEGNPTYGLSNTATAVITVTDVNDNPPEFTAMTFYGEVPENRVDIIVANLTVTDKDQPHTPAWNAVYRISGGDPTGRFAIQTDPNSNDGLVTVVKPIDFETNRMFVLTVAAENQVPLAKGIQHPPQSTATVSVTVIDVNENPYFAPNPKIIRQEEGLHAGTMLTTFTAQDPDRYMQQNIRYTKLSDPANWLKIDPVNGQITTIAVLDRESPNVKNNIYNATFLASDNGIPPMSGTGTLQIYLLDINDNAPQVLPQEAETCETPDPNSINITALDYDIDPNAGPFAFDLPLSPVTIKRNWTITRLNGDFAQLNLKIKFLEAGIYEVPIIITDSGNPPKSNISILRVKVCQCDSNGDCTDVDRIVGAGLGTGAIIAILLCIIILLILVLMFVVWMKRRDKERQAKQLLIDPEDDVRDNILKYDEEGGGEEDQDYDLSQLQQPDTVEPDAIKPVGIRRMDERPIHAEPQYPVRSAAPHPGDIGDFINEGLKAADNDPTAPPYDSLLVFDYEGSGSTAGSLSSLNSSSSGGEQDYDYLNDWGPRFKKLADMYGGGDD
Briefly: Antagonist activity at N-cadherin. The class given is functional.

Where a SMILES comes first, the peptide text is derived from it. Bridges are numbered along the chain shown (N, C = ends).

Sequence of D(2) dopamine receptor (Homo sapiens) (P14416 whole entry): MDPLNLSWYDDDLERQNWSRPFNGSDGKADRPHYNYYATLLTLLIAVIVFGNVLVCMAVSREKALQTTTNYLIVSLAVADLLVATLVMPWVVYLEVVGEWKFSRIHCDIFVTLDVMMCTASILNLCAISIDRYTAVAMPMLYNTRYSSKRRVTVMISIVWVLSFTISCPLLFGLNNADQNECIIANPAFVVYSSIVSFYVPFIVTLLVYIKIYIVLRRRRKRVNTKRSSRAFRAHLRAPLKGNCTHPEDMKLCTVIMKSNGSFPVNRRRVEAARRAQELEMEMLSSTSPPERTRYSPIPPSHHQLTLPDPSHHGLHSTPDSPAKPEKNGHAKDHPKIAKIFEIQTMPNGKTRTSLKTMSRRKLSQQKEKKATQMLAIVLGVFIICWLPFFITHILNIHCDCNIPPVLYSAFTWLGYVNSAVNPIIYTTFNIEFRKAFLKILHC

As to `CCC/C(=N\OCc1ccc(-c2ccccc2)cc1)C1C(=O)CC(C)(C2OCC(C)(C)CO2)OC1=O` (configuration not stated), the figures for the IC50 in assay [1] and in assay [2] were 270 µM and 90 µM, respectively.

In turn, `CC[C@H](C)[C@@H]1NC(=O)[C@H](CC(=O)O)NC(=O)[C@H](C(C)C)NC(=O)[C@H](C)NC(=O)[C@H](Cc2cnc[nH]2)NC(=O)CNC(=O)[C@H](CC(N)=O)NC(=O)[C@H]([C@@H](C)CC)NC(=O)[C@H](CC(=O)O)NC(=O)[C@H](C(C)C)NC(=O)[C@H](C)NC(=O)[C@H](Cc2cnc[nH]2)NC(=O)[C@@H](NC(C)=O)CSSC[C@@H](C(N)=O)NC1=O` (Ac-CHAVDINGHAVDIC-NH2; disulfide 1-14) registered an Activity in assay [3] of 70%.

In assay [4], `N[C@@H](Cc1ccccc1)C(=O)NC1C(=O)N(CC(=O)O)C[C@H]1CC(=O)O` (some centres not stated) returned an Activity of 146%.

`CC(=O)N[C@H]1CSSC[C@@H](C(N)=O)NC(=O)[C@H](CC(=O)O)NC(=O)[C@H](C(C)C)NC(=O)[C@H](C)NC(=O)[C@H](Cc2cnc[nH]2)NC1=O` (Ac-CHAVDC-NH2; disulfide 1-6) had an IC50 on Cadherin-2 of 5 µM.

Turning to `CCC/C(=N\OC/C(Cl)=C/c1ccc(Cl)cc1)C1C(=O)CC(C)(C)CC1=O`, the values for the half-inhibitory concentration (IC50) in assay [1] and in assay [2] were 350 µM and 290 µM, respectively.
